Tests used:
[1] = tested on: myocardial cells derived from iPS cells of hypertrophic cardiomyopathy patient (MYH7 R403Q); test: Myocardial relaxation rate (SONY SI8000) in HCM patient iPS-derived myocardial cells; format: cell-based; conditions: ALA/SFC 10 μM/5 μM, 30 μM/1 μM, 100 μM/50 μM; measured Day 20 and Day 26 vs before administration (Day 15); FIG. 1
Protocol: (§1) Myocardial cells differentiated from iPS cells derived from hypertrophic cardiomyopathy patient were purchased, seeded, and cultured and were then administered with 5-aminolevulinic acid and sodium ferrous citrate (ALA/SFC). As myocardial cells, […] Cardiomyocytes (MYH7 R403Q) (C1081, cat. #556-34781) (FUJIFILM Cellular Dynamics, Inc.) was used. As a control, myocardial cells derived from iPS cells of normal subject (Cell Cardiomyocytes (Control) (C1056, cat. #551-33491) (FUJIFILM Cellular Dynamics, Inc.) was used. As the culture medium for cell seeding, (iCell Plating medium (M1001, cat. #550-33581) (FUJIFILM Cellular Dynamics, Inc.) was used.
(§2) In the cell culture, as the culture medium, iCell Maintenance medium (M1003, cat. #557-3359I) (FUJIFILM Cellular Dynamics, Inc.) was used.
(§3) • Day 1: Cell seeding (myocardial cells derived from iPS cells of hypertrophic cardiomyopathy patient, myocardial cells derived from iPS cells of normal subject). The cells were seeded at 3×10^4 per well in a 96-well plastic plate (nunc); • Day 15: The relaxation rate before administration was measured using SONY SI8000, and ALA/SFC were then administered on the same day at the following doses. The doses were four groups of 0 μM/0 μM, 10 μM/5 μM, 30 μM/1 μM, and 100 μM/50 μM of ALA/SFC for each of the disease myocardial cells and the normal myocardial cells. […]

[2] = tested on: myocardial cells derived from iPS cells of normal subject; test: Myocardial relaxation rate (SONY SI8000) in normal myocardial cells; format: cell-based; conditions: ALA/SFC 10 μM/5 μM, 30 μM/1 μM, 100 μM/50 μM; measured Day 20 and Day 26 vs before administration (Day 15); FIG. 2
Protocol: as §1, §2, §3

[3] = tested on: myocardial cells derived from iPS cells of hypertrophic cardiomyopathy (HCM) patient; test: Fluorescent calcium imaging, peak width of Ca-imaging waveform; format: cell-based; conditions: 10 μM and 30 μM 5-aminolevulinic acid added from 7th day after seeding; FIG. 4
Source text: The determinant of the myocardial relaxation rate is the dissociation rate of myosin and actin, and one of factors of determining the dissociation rate is the Ca^2+ uptake function of ATPase present in the longitudinal tubules of sarcoplasmic reticulum. Accordingly, using the above-mentioned myocardial cells derived from iPS cells of hypertrophic cardiomyopathy (HCM) patient, the peak width of a Ca-imaging waveform, which reflects the disappearance rate of Ca^2+ in myocardial cells (i.e., the uptake rate of Ca^2+ into the sarcoplasmic reticulum) by addition of 5-aminolevulinic acid, was measured. […]
As the measurement apparatus for high content analysis, CQ1 Image Cytometer of Yokogawa Electric Corporation was used, and the measurement was performed with excitation light of 488 nm and fluorescence at 500 to 550 nm (spinning-disk confocal unit with microlens array). […]
Over the entire screen of the obtained image data, the fluorescence intensity was digitized over time to obtain fluorescence waveforms. […] The parameters calculated from a waveform were the line width (sec) at each of 10%, 20%, 30%, 50%, 70%, and 90% of the waveform height, the length (sec) of interval between each wave, and the fluorescence intensity (ΔF).

[4] = tested on: zebrafish cardiomyopathy model (myocardial troponin T knockdown (tnnt2a KD)); test: Zebrafish cardiomyopathy model (tnnt2a KD), peak filling rate by heart imaging; format: in vivo; conditions: ALA/SFC 100 μM/50 μM in culture solution, DAY 0-2, imaging DAY 3; FIG. 5
Source text: A synthetic nucleic acid, morpholino antisense oligo (MO), which inhibits translation of zebrafish myocardial troponin T (tnnt2a), was used. The target sequence of tnnt2a-MO used for producing this cardiomyopathy model was 5′-[…]-3′ (SEQ ID NO: 1), and the target sequence of standard control MO (Control-MO) used as a negative control was 5′-[…]-3′ (SEQ ID NO: 2). Both MOs used were produced by Certified GeneTool, Inc. Standard control MO (Lis-MO) having the 3′ terminal labeled with a red fluorescent material, Lissamine, was used as an internal standard substance. An MO powder diluted with nuclease free water to 1 mM was used as a stock solution, and the final concentrations of the tnnt2a-MO and Control-MO were adjusted to 1.2 μM and the final concentration of Lis-MO was adjusted to 50 μM, using nuclease free water as a working solution for microinjection. […]
The acquired moving image was converted into sequence images, and the ventricular outline in each frame was recorded as Region of Interest (ROT). Subsequently, the major and minor axes of an ellipse approximating to the ROI on each sequence image were measured by Fit-to-Ellipse algorithm, the volume of the spheroid of each sequence image was calculated as a ventricular volume, and the peak filling rate (PFR: diastolic function) was measured from the rate of change in the obtained ventricular volume.

NCC(=O)CCC(=O)O [5-aminolevulinic acid]
relaxation rate of myocardial cells in hypertrophic cardiomyopathy [1]: noticeably increased
relaxation rate in normal myocardial cells [2]: did not increase
peak width at 50% of the height of a Ca-imaging waveform (uptake of Ca2+ into sarcoplasmic reticulum) [3]: obviously reduced
left ventricular diastolic function (peak filling rate, PFR) [4]: improved

From patent US12539285B2, “Therapeutic agent for hypertrophic cardiomyopathy” (JUNTENDO EDUCATIONAL FOUNDATION, priority 2021, dated 2026)
